Source: article PMC6413085, “A Validated HPLC-MS/MS Assay for 14-O-[(4,6-Diaminopyrimidine-2-yl)thioacetyl] Mutilin in Biological Samples and Its Pharmacokinetic, Distribution and Excretion via Urine and Feces in Rats” (Molecules, 2019)

Test: Stability of DPTM in plasma, tissue homogenates, urine and feces (QC samples)
Assay type: physicochemical, rat
Method: Stability of DPTM and IS was examined by comparing the analytes’ concentrations in freshly prepared samples with those of samples maintained under different conditions, including the 24 h storage at room temperature, three freeze and thaw cycles, and storage at −70 °C for 4 weeks, respectively. Analyzing three levels of QC samples were used to assess the stability (accuracy and precision) with six replicates.
For the construction of calibration curves, 20 μL of each corresponding standard working solution (0.05, 0.2, 0.5, 1, 2, 5, 10, 20 and 40 μg/mL) was evaporated to dryness by nitrogen at 40 °C. The calibration standards (5, 20, 50, 100, 200, 500, 1000, 2000 and 4000 ng/mL) were prepared by adding 200 μL of blank plasma, various tissue homogenates (including heart, liver, spleen, lung, kidney, large intestine, small intestine, ileum, cecum, bladder, brain, jejunum and colon) or urine and feces to the residue, respectively. Quality control (QC) samples (10, 200 and 3000 ng/mL) were obtained by the same way as the calibration standards. All solutions were stored at −70 °C before use for no longer than 4 weeks.

In the case of `C=CC1(C)CC(OC(=O)CSc2nc(N)cc(N)n2)C2(C)C(C)CCC3(CCC(=O)C32)C(C)C1O` (centres unmarked) [DPTM, 14-O-[(4,6-Diaminopyrimidine-2-yl)thioacetyl] mutilin], the “Stability RE” value (Bladder, 10 ng/mL, Freeze-thaw Cycles) is reported as 3.9%, the “Stability RE” value (Bladder, 10 ng/mL, Long-term (−70 °C, 4 Weeks)) is reported as 3.6% and the “Stability RE” value (Bladder, 10 ng/mL, Short-term (25 °C, 24 h)) is reported as 4.1%. For the same compound, the “Stability RE” value (Bladder, 200 ng/mL, Freeze-thaw Cycles) was 5.1%, the “Stability RE” value (Bladder, 200 ng/mL, Long-term (−70 °C, 4 Weeks)) was 5.1% and the “Stability RE” value (Bladder, 200 ng/mL, Short-term (25 °C, 24 h)) was 1.9%. The “Stability RE” value (Bladder, 3000 ng/mL, Freeze-thaw Cycles) was 3.5%, the “Stability RE” value (Bladder, 3000 ng/mL, Long-term (−70 °C, 4 Weeks)) was 3.3% and the “Stability RE” value (Bladder, 3000 ng/mL, Short-term (25 °C, 24 h)) was 3.1%. The “Stability RE” value (Brain, 10 ng/mL, Freeze-thaw Cycles) was 4.9%, the “Stability RE” value (Brain, 10 ng/mL, Long-term (−70 °C, 4 Weeks)) was 5.3% and the “Stability RE” value (Brain, 10 ng/mL, Short-term (25 °C, 24 h)) was 1.1%. The “Stability RE” value (Brain, 200 ng/mL, Freeze-thaw Cycles) was 6.5%, the “Stability RE” value (Brain, 200 ng/mL, Long-term (−70 °C, 4 Weeks)) was 6.6% and the “Stability RE” value (Brain, 200 ng/mL, Short-term (25 °C, 24 h)) was 3.3%. For the same compound, the “Stability RE” value (Brain, 3000 ng/mL, Freeze-thaw Cycles) was 4.1%, the “Stability RE” value (Brain, 3000 ng/mL, Long-term (−70 °C, 4 Weeks)) was 4.1% and the “Stability RE” value (Brain, 3000 ng/mL, Short-term (25 °C, 24 h)) was 8.1%. The “Stability RE” value (Cecum, 10 ng/mL, Freeze-thaw Cycles) was 7.2%, the “Stability RE” value (Cecum, 10 ng/mL, Long-term (−70 °C, 4 Weeks)) was 6.4% and the “Stability RE” value (Cecum, 10 ng/mL, Short-term (25 °C, 24 h)) was 6.7%. For the same compound, the “Stability RE” value (Cecum, 200 ng/mL, Freeze-thaw Cycles) was 3.9%, the “Stability RE” value (Cecum, 200 ng/mL, Long-term (−70 °C, 4 Weeks)) was 3.2% and the “Stability RE” value (Cecum, 200 ng/mL, Short-term (25 °C, 24 h)) was 3.1%. The “Stability RE” value (Cecum, 3000 ng/mL, Freeze-thaw Cycles) was −4.9%, the “Stability RE” value (Cecum, 3000 ng/mL, Long-term (−70 °C, 4 Weeks)) was −6.4% and the “Stability RE” value (Cecum, 3000 ng/mL, Short-term (25 °C, 24 h)) was −5.1%. The “Stability RE” value (Colon, 10 ng/mL, Short-term (25 °C, 24 h)) was 5.4%, the “Stability RE” value (Ileum, 10 ng/mL, Freeze-thaw Cycles) was −3.5% and the “Stability RE” value (Ileum, 10 ng/mL, Long-term (−70 °C, 4 Weeks)) was 3.2%. For the same compound, the “Stability RE” value (Ileum, 10 ng/mL, Short-term (25 °C, 24 h)) was 2.9%, the “Stability RE” value (Ileum, 200 ng/mL, Freeze-thaw Cycles) was 5.2% and the “Stability RE” value (Ileum, 200 ng/mL, Long-term (−70 °C, 4 Weeks)) was −5.1%. The “Stability RE” value (Ileum, 200 ng/mL, Short-term (25 °C, 24 h)) was 1.7%, the “Stability RE” value (Ileum, 3000 ng/mL, Freeze-thaw Cycles) was 3.3% and the “Stability RE” value (Ileum, 3000 ng/mL, Long-term (−70 °C, 4 Weeks)) was 3.5%. The “Stability RE” value (Ileum, 3000 ng/mL, Short-term (25 °C, 24 h)) was 3.1%, the “Stability RE” value (Jejunum, 10 ng/mL, Freeze-thaw Cycles) was 6.1% and the “Stability RE” value (Jejunum, 10 ng/mL, Long-term (−70 °C, 4 Weeks)) was 5.6%. For the same compound, the “Stability RE” value (Jejunum, 10 ng/mL, Short-term (25 °C, 24 h)) was 7.2%, the “Stability RE” value (Jejunum, 200 ng/mL, Freeze-thaw Cycles) was 7.3% and the “Stability RE” value (Jejunum, 200 ng/mL, Long-term (−70 °C, 4 Weeks)) was 7.3%. For the same compound, the “Stability RE” value (Jejunum, 200 ng/mL, Short-term (25 °C, 24 h)) was 7.5%, the “Stability RE” value (Jejunum, 3000 ng/mL, Freeze-thaw Cycles) was −5.4% and the “Stability RE” value (Jejunum, 3000 ng/mL, Long-term (−70 °C, 4 Weeks)) was −5.6%. For the same compound, the “Stability RE” value (Jejunum, 3000 ng/mL, Short-term (25 °C, 24 h)) was −5.3%, the “Stability RE” value (Kidney, 10 ng/mL, Freeze-thaw Cycles) was 3.7% and the “Stability RE” value (Kidney, 10 ng/mL, Long-term (−70 °C, 4 Weeks)) was 3.5%. For the same compound, the “Stability RE” value (Kidney, 10 ng/mL, Short-term (25 °C, 24 h)) was 3.4%, the “Stability RE” value (Kidney, 200 ng/mL, Freeze-thaw Cycles) was 2.3% and the “Stability RE” value (Kidney, 200 ng/mL, Long-term (−70 °C, 4 Weeks)) was 1.9%. For the same compound, the “Stability RE” value (Kidney, 200 ng/mL, Short-term (25 °C, 24 h)) was 0.9%, the “Stability RE” value (Kidney, 3000 ng/mL, Freeze-thaw Cycles) was 10.1% and the “Stability RE” value (Kidney, 3000 ng/mL, Long-term (−70 °C, 4 Weeks)) was 9.9%. The “Stability RE” value (Kidney, 3000 ng/mL, Short-term (25 °C, 24 h)) was 3.2%, the “Stability RE” value (Large intestine, 10 ng/mL, Freeze-thaw Cycles) was 6.3% and the “Stability RE” value (Large intestine, 10 ng/mL, Long-term (−70 °C, 4 Weeks)) was 6.9%. For the same compound, the “Stability RE” value (Large intestine, 10 ng/mL, Short-term (25 °C, 24 h)) was 1.9% and the “Stability RE” value (Large intestine, 200 ng/mL, Freeze-thaw Cycles) was 2.4%.
